# Source: PubChem BioAssay (NCI)
#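 How tested: cells in 96-well plates exposed to compound for 48 hours at five concentrations. GI50: concentration for 50% inhibition of growth. TGI denotes the concentration required for complete inhibition of growth.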
# Experiments:
# Test in all cases: growth of human tumour cells (NCI), 48 h
# [1] = system: SW-620 colon
# [2] = system: HCT-15 colon
# [3] = system: CCRF-CEM leukemia
# [4] = system: HOP-62 NSCLC
# [5] = system: RXF 393 renal
# [6] = system: KM12 colon
# [7] = system: SK-MEL-2 melanoma
# [8] = system: MALME-3M melanoma
# [9] = system: HT29 colon
# [10] = system: NCI-H522 lung
SMILES,GI50 [1] [µM],TGI [1] [µM],GI50 [2] [µM],TGI [2] [µM],GI50 [3] [µM],TGI [3] [µM],GI50 [4] [µM],TGI [4] [µM],GI50 [5] [µM],TGI [5] [µM],GI50 [6] [µM],TGI [6] [µM],GI50 [7] [µM],TGI [7] [µM],GI50 [8] [µM],TGI [8] [µM],GI50 [9] [µM],TGI [9] [µM],GI50 [10] [µM],TGI [10] [µM]
CCN(CC)CCCC(C)Nc1c2ccc(C)cc2nc2ccc(OC)cc12 (stereo unspecified),0.709,10.2,2.32,13.1,1.82,9.9,1.37,3.49,1.44,2.88,1.39,9.19,1.89,8.75,1.73,3.53,0.37,3.32,,
C[C@]12CC[C@@H]3c4ccc(O)cc4C(O)C[C@H]3[C@@H]1CCC2=O (stereo partly specified),> 100,> 100,> 100,> 100,> 100,> 100,> 100,> 100,,,> 100,> 100,> 100,> 100,> 100,> 100,46.7,> 100,60.8,> 100
N.N.N.N.N.N.O=N[O-].[Br-].[Co+3].[Co+3].[OH3+].[OH3+],> 100,> 100,> 100,> 100,> 100,> 100,,,> 100,> 100,> 100,> 100,> 100,> 100,> 100,> 100,,,,
CCCCCCN(CCCCCC)CC(O)c1ccc2c3c(cccc13)CC2 (stereo unspecified),3.17,14.9,6.63,25.1,,,12.1,24.7,2.39,7.21,5.3,18.9,11,24.7,14.1,32.1,1.18,13.2,3.14,13.2
CC1(C)C2CCC3(C2)CS(=O)(=O)N2OC231 (stereo unspecified),,32.9,,30.1,,> 100,,> 100,,,,41.9,,39.3,,28.8,,31.8,,26.9
O=c1ccc(=O)c2c(=O)c3ccccc3c(=O)c1=2,,> 100,,> 100,,> 100,,> 100,,> 100,,> 100,,> 100,,> 100,,,,> 100
CCOC(=O)[C@H]1Nc2ccc(OC)cc2C2c3ccccc3CC21 (stereo partly specified),,> 100,,> 100,,,,> 100,,> 100,,> 100,,> 100,,> 100,,> 100,,> 100
C[C-](O)O.O/C(=C\[C-](O)c1ccccc1)c1ccccc1.O/C(=C\[C-](O)c1ccccc1)c1ccccc1.[Nd+3] (stereo unspecified),6.94,> 100,4.96,20.1,2.21,15.3,3.1,15.7,,,,,13.1,34.4,16.8,65.9,10.6,22.5,3.59,28.9
